According to US10253039B2, “Inhibitors of bacterial DNA gyrase with efficacy against gram-negative bacteria” (priority 2014, dated 2019):
≈ marks a conversion by molar mass, not a printed value. Read-outs that look alike come from different tables or passages of the source.

Columns and labels:
Format in all cases: cell-based
E. coli BW25113 = assay: MIC, microdilution in 96-well plates; details: Escherichia coli, read-out: MIC
Summary of the method: (§1)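 Determined via CLSI-guided microdilution: triplicate two-fold compound gradients, a DMSO vehicle column, and cultures seeded 1:10000 in LB from growing cells. Incubation lasted 16-18 hours at 37° C. under shaking, with MIC called as the lowest concentration lacking visible growth.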

Edwardsiella tarda = assay: MIC, microdilution in 96-well plates
Summary of the method: as §1

Streptococcus agalactiae = assay: MIC, 20-strain panel
Summary of the method: as §1

E. coli MG1655 = assay: MIC, 20-strain panel; details: Escherichia coli, read-out: MIC
Summary of the method: as §1

E. coli JW5503 (deltolC) = assay: MIC, 20-strain panel; details: Escherichia coli
Summary of the method: as §1

[1] = test system: Staphylococcus epidermidis; assay: MIC, 20-strain panel
Summary of the method: as §1

Shigella flexneri = assay: MIC, 20-strain panel
Summary of the method: as §1

[2] = test system: Staphylococcus aureus subsp. aureus; assay: MIC, 20-strain panel; details: read-out: MIC
Summary of the method: as §1

[3] = test system: Salmonella enterica subsp. enterica typhimurium; assay: MIC, 20-strain panel
Summary of the method: as §1

[4] = test system: Klebsiella pneumoniae subsp. pneumoniae; assay: MIC, 20-strain panel
Summary of the method: as §1

Streptococcus pyogenes = assay: MIC, 20-strain panel
Summary of the method: as §1

[5] = test system: Staphylococcus saprophyticus subsp. saprophyticus; assay: MIC, 20-strain panel
Summary of the method: as §1

[6] = Staphylococcus aureus subsp. aureus
[7] = Salmonella enterica subsp. enterica Typhimurium
[8] = Klebsiella pneumoniae subsp. pneumoniae
[9] = H: Staphylococcus aureus subsp. aureus
[10] = F: Salmonella enterica subsp. enterica Typhimurium
[11] = E: Klebsiella pneumoniae subsp. pneumoniae

Row | SMILES | MIC (E. coli BW25113; BW25113, E. coli BW25113) | MIC (Edwardsiella tarda) | MIC (Streptococcus agalactiae) | MIC (E. coli MG1655; MG1655, E. coli MG1655) | MIC (E. coli JW5503 (deltolC); E. coli JW5503 (deltolC)) | MIC [1] | MIC (Shigella flexneri) | MIC [2, 6] | MIC [3, 7] | MIC [4, 8] | MIC (Streptococcus pyogenes) | MIC [5] | MIC (E. coli BW25113; BW25113, B: E. coli BW25113) | MIC (Edwardsiella tarda; D: Edwardsiella tarda) | MIC (E. coli MG1655; MG1655, A: E. coli MG1655) | MIC (E. coli JW5503 (deltolC); C: E. coli JW5503 (deltolC)) | MIC (Shigella flexneri; G: Shigella flexneri) | MIC [2, 9] | MIC [3, 10] | MIC [4, 11]
1 | Cc1ccc(S(=O)(=O)N[C@@H]2CCN(Cc3ccc(-c4ccccc4)cc3)C2)cn1 [Compound 174] | > 8 µg/mL | > 8 µg/mL | > 8 µg/mL | > 8 µg/mL | > 8 µg/mL | > 8 µg/mL | > 8 µg/mL | > 8 µg/mL | > 8 µg/mL | > 8 µg/mL | > 8 µg/mL | > 8 µg/mL | – | – | – | – | – | – | – | –
2 | COc1cc(CN2CC[C@@H](NS(=O)(=O)c3cccc(C#N)c3)C2)ccc1OC(C)C [Compound 155] | > 8 µg/mL | > 8 µg/mL | > 8 µg/mL | > 8 µg/mL | > 8 µg/mL | > 8 µg/mL | > 8 µg/mL | > 8 µg/mL | > 8 µg/mL | > 8 µg/mL | > 8 µg/mL | > 8 µg/mL | – | – | – | – | – | – | – | –
3 | O=S(=O)(N[C@@H]1CCN(Cc2ccc(-c3ccccc3)cc2)C1)c1ccc(Cl)cn1 [Compound 141] | > 8 µg/mL | > 8 µg/mL | > 8 µg/mL | > 8 µg/mL | ~8 µg/mL (≈ 18.7 µM) | > 8 µg/mL | > 8 µg/mL | > 8 µg/mL | > 8 µg/mL | > 8 µg/mL | > 8 µg/mL | > 8 µg/mL | – | – | – | – | – | – | – | –
4 | N#Cc1cccc(S(=O)(=O)N[C@@H]2CCN(Cc3ccc(N4CCCC4=O)cc3)C2)c1 [Compound 97] | – | – | > 8 µg/mL | – | – | > 8 µg/mL | – | – | – | – | > 8 µg/mL | > 8 µg/mL | > 8 µg/mL | > 8 µg/mL | > 8 µg/mL | 4 µg/mL (≈ 9.42 µM) | > 8 µg/mL | > 8 µg/mL | > 8 µg/mL | > 8 µg/mL
5 | CSc1ccc(CN2CC[C@@H](NS(=O)(=O)c3cccc(C#N)c3)C2)cc1 [Compound 31] | – | – | > 8 µg/mL | – | – | > 8 µg/mL | – | – | – | – | > 8 µg/mL | > 8 µg/mL | > 8 µg/mL | > 8 µg/mL | > 8 µg/mL | ~8 µg/mL (≈ 20.6 µM) | > 8 µg/mL | > 8 µg/mL | > 8 µg/mL | > 8 µg/mL
6 | O=S(=O)(N[C@@H]1CCN(Cc2ccc(-c3ccccc3)cc2)C1)c1cc(C(F)(F)F)ccc1F [Compound 114] | – | – | > 8 µg/mL | – | – | ~8 µg/mL (≈ 16.7 µM) | – | – | – | – | ~8 µg/mL (≈ 16.7 µM) | > 8 µg/mL | > 8 µg/mL | > 8 µg/mL | > 8 µg/mL | 1 µg/mL (≈ 2.09 µM) | > 8 µg/mL | > 8 µg/mL | 4 µg/mL (≈ 8.36 µM) | > 8 µg/mL
7 | N#Cc1cccc(S(=O)(=O)N[C@@H]2CCN(Cc3ccc(OC4CCCC4)cc3)C2)c1 [Compound 40] | – | – | > 8 µg/mL | – | – | > 8 µg/mL | – | – | – | – | > 8 µg/mL | > 8 µg/mL | > 8 µg/mL | > 8 µg/mL | > 8 µg/mL | 0.5 µg/mL (≈ 1.17 µM) | > 8 µg/mL | > 8 µg/mL | 4 µg/mL (≈ 9.4 µM) | > 8 µg/mL
8 | O=S(=O)(N[C@@H]1CCN(Cc2ccc(SC(F)(F)F)cc2)C1)c1cccc(OC(F)(F)F)c1 [Compound 55] | – | – | > 8 µg/mL | – | – | > 8 µg/mL | – | – | – | – | > 8 µg/mL | > 8 µg/mL | > 8 µg/mL | > 8 µg/mL | > 8 µg/mL | 8 µg/mL (≈ 16 µM) | > 8 µg/mL | > 8 µg/mL | > 8 µg/mL | > 8 µg/mL
9 | O=S(=O)(N[C@@H]1CCN(Cc2ccc(OC3CCC3)cc2)C1)c1cccc(OC(F)(F)F)c1 [Compound 177] | > 8 µg/mL | > 8 µg/mL | > 8 µg/mL | > 8 µg/mL | 2 µg/mL (≈ 4.25 µM) | > 8 µg/mL | > 8 µg/mL | > 8 µg/mL | > 8 µg/mL | > 8 µg/mL | > 8 µg/mL | > 8 µg/mL | – | – | – | – | – | – | – | –
10 | O=S(=O)(N[C@@H]1CCN(Cc2ccc(-c3ccccc3)cc2)C1)c1ncc[nH]1 [Compound 16] | – | – | > 8 µg/mL | – | – | > 8 µg/mL | – | – | – | – | > 8 µg/mL | > 8 µg/mL | > 8 µg/mL | > 8 µg/mL | > 8 µg/mL | 2 µg/mL (≈ 5.23 µM) | > 8 µg/mL | > 8 µg/mL | 8 µg/mL (≈ 20.9 µM) | > 8 µg/mL
11 | CN1C(=O)Cc2cc(S(=O)(=O)N[C@@H]3CCN(Cc4ccc(OC5CC5)cc4)C3)ccc21 [Compound 181] | > 8 µg/mL | > 8 µg/mL | > 8 µg/mL | > 8 µg/mL | > 8 µg/mL | > 8 µg/mL | > 8 µg/mL | > 8 µg/mL | > 8 µg/mL | > 8 µg/mL | > 8 µg/mL | > 8 µg/mL | – | – | – | – | – | – | – | –
